Reference: patent US20110052623A1, “DRIED MICROBIAL CELLS OR MICROORGANISM EXTRACT CONTAINING STABILIZED (SS)-S-ADENOSYL-L-METHIONINE AND METHOD FOR PRODUCTION OF THE DRIED MICROORGANISM CELL OR MICROORGANISM EXTRACT” (KANEKA CORPORATION, priority 2007, published 2011)
Counter-ions that a name gives are not always drawn. Like-named read-outs stand apart in the source and are kept apart here.

How the values were obtained:
[1] = Stabilizing agent: dried yeast cells containing SAM with added compound preserved at 25° C. for 7 days; type: physicochemical
Description: The yeast cells obtained in the Reference Example were suspended in deionized water in one-sixth (⅙) of the amount of the culture solution. Each of the compounds listed in table 3 (30% by weight in terms of dry weight) was separately added to the resultant, followed by freezing at −80° C. and lyophilization. Thus, dried yeast cells containing SAM were obtained.

[2] = Bioabsorbability of dried yeast cells containing (SS)-SAM, oral administration (Example 4); type: in vivo; settings: SD rats, 20 g/L SAM at 5 ml/kg b.w.
Description: The resultant was orally administered to rats in the same manner such that comparative control examples were obtained. Before administration and 1, 2, 3, 5, or 8 hours after administration, blood was collected from the jugular vein without any anesthesia and with the use of heparin as an anticoagulant. The plasma components were collected via centrifugation. A 0.4 g/L trichloroacetic acid aqueous solution (40 μL) was added to the obtained plasma (200 μL), followed by mixing and centrifugation. The SAM concentration in the obtained supernatant was analyzed by HPLC. FIG. 1 and table 4 show the results.

[3] = Bioabsorbability of spray-dried yeast cells containing (SS)-SAM, oral administration (Example 5); type: in vivo; settings: SD rats, 20 g/L SAM at 5 ml/kg b.w.
Description: The obtained dried yeast cells were matured in the presence of silica gel at 40° C. for 7 days. Thus, dried yeast cells containing (SS)-SAM were obtained. The obtained dried yeast cells containing (SS)-SAM were suspended in distilled water to result in an SAM concentration of 20 g/L. The resultant was orally administered to SD rats (male, 17 weeks old) at a dose of 5 ml/kg b.w. […] The resultant was orally administered to rats in the same manner such that comparative control examples were obtained. Before administration and 1, 2, 3, 5, or 8 hours after administration, blood collection was carried out from the jugular vein without any anesthesia and with the use of heparin as an anticoagulant. The plasma components were collected via centrifugation. A 0.4 g/L trichloroacetic acid aqueous solution (40 μL) was added to the obtained plasma (200 μl), followed by mixing and centrifugation. The SAM concentration in the obtained supernatant was analyzed by HPLC.

[4] = compound added at 30% by weight to dried yeast cells, 25° C., 7 days

## O=C(O)CC(O)C(=O)O (racemic) [DL-malic acid]
[1]; [4]
  SAM residual rate: 99.1%

## CCC(N)C(=O)O (racemic) [DL-α-amino-n-butyrate]
[1]; [4]
  SAM residual rate: 96.8%

## Cl.N [Ammonium chloride]
[1]; [4]
  SAM residual rate: 95.6%

## N.O=P(O)(O)O [Ammonium dihydrogen phosphate]
[1]
  SAM residual rate: 93.6%

## N.N.O=S(=O)(O)O [Ammonium sulfate]
[1]; [4]
  SAM residual rate: 87.5%

## [Ca+2].[Cl-].[Cl-] [Calcium chloride]
[1]
  SAM residual rate: 93.7%

## O=C(O)CC(O)(CC(=O)O)C(=O)O [Citric acid]
[1]; [4]
  SAM residual rate: 96.6%

## O=S(=O)([O-])[O-].[Cu+2] [Copper sulfate]
[1]
  SAM residual rate: 94.2%

## OC[C@H]1O[C@@H](O[C@H]2[C@H](O)[C@@H](O)[C@H](O)O[C@@H]2CO)[C@H](O)[C@@H](O)[C@@H]1O [D-cellobiose]
[1]; [4]
  SAM residual rate: 93.1%

## CC(C)C[C@@H](N)C(=O)O [D-leucine]
[1]; [4]
  SAM residual rate: 91.9%

## OC[C@@H](O)[C@H](O)[C@H](O)[C@@H](O)CO [Dulcitol]
[1]; [4]
  SAM residual rate: 92.2%

## O.O.O.O.O.O.O.O=S(=O)([O-])[O-].[Fe+2] [Ferrous sulfate heptahydrate]
[1]
  SAM residual rate: 90.4%

## OC[C@@H](O)[C@H](O)[C@H](O)[C@@H](O)CO [Galactitol]
[1]; [4]
  SAM residual rate: 90.7%

## O=C[C@H](O)[C@@H](O)[C@@H](O)[C@H](O)CO [Galactose]
[1]; [4]
  SAM residual rate: 99.7%

## O=C1O[C@H](CO)[C@@H](O)[C@H](O)[C@H]1O [Glucono-δ-lactone]
[1]; [4]
  SAM residual rate: 100.7%

## NCC(=O)O [Glycine]
[1]; [4]
  SAM residual rate: 97.5%

## O[C@H]1[C@H](O)[C@@H](O)[C@H](O)[C@@H](O)[C@H]1O [Inositol]
[1]; [4]
  SAM residual rate: 96.2%

## C[C@H](N)C(=O)O [L-alanine]
[1]; [4]
  SAM residual rate: 86.9%

## O=C1O[C@H]([C@@H](O)CO)C(O)=C1O [L-ascorbic acid]
[1]; [4]
  SAM residual rate: 90.0%

## NC(=O)CC[C@H](N)C(=O)O [L-glutamine]
[1]; [4]
  SAM residual rate: 94.5%

## CSCC[C@H](N)C(=O)O [L-methionine]
[1]; [4]
  SAM residual rate: 100.9%

## O=C(CO)[C@@H](O)[C@H](O)[C@@H](O)CO [L-sorbose]
[1]; [4]
  SAM residual rate: 88.4%

## O=C(O)[C@H](O)[C@@H](O)C(=O)O [L-tartaric acid]
[1]; [4]
  SAM residual rate: 88.1%

## C[C@@H](O)[C@H](N)C(=O)O [L-threonine]
[1]; [4]
  SAM residual rate: 92.0%

## CC(C)[C@H](N)C(=O)O [L-valine]
[1]; [4]
  SAM residual rate: 89.7%

## OC[C@@H](O)[C@@H](O[C@@H]1O[C@H](CO)[C@H](O)[C@H](O)[C@H]1O)[C@H](O)[C@@H](O)CO [Lactitol]
[1]; [4]
  SAM residual rate: 91.3%

## O=S(=O)([O-])[O-].[Mg+2] [Magnesium sulfate]
[1]
  SAM residual rate: 101.6%

## O=S(=O)([O-])[O-].[Mn+2] [Manganese sulfate]
[1]; [4]
  SAM residual rate: 95.0%

## OC[C@@H](O)[C@@H](O)[C@H](O)[C@H](O)CO [Mannitol]
[1]; [4]
  SAM residual rate: 86.8%

## CC(=O)N[C@H]1C(O)O[C@H](CO)[C@@H](O)[C@@H]1O (stereo partly drawn) [N-acetylglucosamine]
[1]; [4]
  SAM residual rate: 97.6%

## O=C(O)c1cccnc1 [Nicotinic acid]
[1]; [4]
  SAM residual rate: 102.3%

## NC(=O)c1cccnc1 [Nicotinic-acid amide]
[1]; [4]
  SAM residual rate: 97.3%

## O=P(O)(O)O [Phosphoric acid]
[1]; [4]
  SAM residual rate: 89.3%

## C[S+](CC[C@H](N)C(=O)[O-])C[C@H]1O[C@@H](n2cnc3c(N)ncnc32)[C@H](O)[C@@H]1O.Cc1ccc(S(=O)(=O)O)cc1.O=S(=O)(O)O.O=S(=O)(O)O (stereo partly drawn) [SAM/p-toluenesulfonic acid/sulfate]
[2]; AUC at 8 hours after administration, dried yeast cells of Example 1
  Area under SAM concentration curve (AUC): 3200 ng·h/mL
[2]; dried yeast cells of Example 1 (lyophilized)
  Maximum SAM concentration in plasma: 0.771 µg/mL
[3]; AUC at 8 hours after administration, dried yeast cells of Example 5
  Area under SAM concentration curve (AUC): 3200 ng·h/mL
[3]; dried yeast cells of Example 5 (spray dried)
  Maximum SAM concentration in plasma: 0.771 µg/mL

## O=C([O-])[C@H](O)[C@@H](O)[C@H](O)[C@H](O)CO.[Na+] [Sodium gluconate]
[1]; [4]
  SAM residual rate: 89.1%

## OC[C@@H](O)[C@@H](O)[C@H](O)[C@@H](O)CO [Sorbitol]
[1]; [4]
  SAM residual rate: 98.2%

## OC[C@H]1O[C@@](CO)(O[C@H]2O[C@H](CO)[C@@H](O)[C@H](O)[C@H]2O)[C@@H](O)[C@@H]1O [Sucrose]
[1]; [4]
  SAM residual rate: 93.8%

## O=S(=O)([O-])[O-].[Zn+2] [Zinc sulfate]
[1]
  SAM residual rate: 94.3%

## Cc1ncc(C[n+]2csc(CCO)c2C)c(N)n1 [thiamine hydrochloride]
[1]; [4]
  SAM residual rate: 99.5%

## Cellulose
[1]; [4]
  SAM residual rate: 92.0%

## Ferric chloride hexahydrate
[1]; [4]
  SAM residual rate: 95.7%

## Fructo-oligosaccharide
[1]; [4]
  SAM residual rate: 85.9%

## Glycogen
[1]; [4]
  SAM residual rate: 94.6%

## Inulin
[1]; [4]
  SAM residual rate: 93.1%

## Isomalto-oligosaccharide
[1]; [4]
  SAM residual rate: 84.9%
